Positions of bridges follow the written chain, without caps; N, C: chain ends. Non-standard residues stand in square brackets, D forms with d. Residues, ends and D or L forms follow the SMILES beside them. Pen = CC(C)(S)[C@H](N)C(=O)O
Key:
[1] = Binding affinity against Opioid receptor delta 1 in guinea pig brain homogenates, using [3H]DPDPE as radioligand.
Mu-type opioid receptor = Mu-type opioid receptor (Cavia porcellus, UniProt P97266); test: Binding affinity against opioid receptor mu in guinea pig brain homogenates, using [3H]DAMGO as radioligand.; type: tissue-based
[2] = target: Kappa-type opioid receptor (Cavia porcellus, UniProt P41144); test: Binding affinity against opioid receptor kappa from guinea pig brain homogenates, using [3H]U-69593 as radioligand.; type: tissue-based
Chain of Kappa-type opioid receptor (P41144 whole entry): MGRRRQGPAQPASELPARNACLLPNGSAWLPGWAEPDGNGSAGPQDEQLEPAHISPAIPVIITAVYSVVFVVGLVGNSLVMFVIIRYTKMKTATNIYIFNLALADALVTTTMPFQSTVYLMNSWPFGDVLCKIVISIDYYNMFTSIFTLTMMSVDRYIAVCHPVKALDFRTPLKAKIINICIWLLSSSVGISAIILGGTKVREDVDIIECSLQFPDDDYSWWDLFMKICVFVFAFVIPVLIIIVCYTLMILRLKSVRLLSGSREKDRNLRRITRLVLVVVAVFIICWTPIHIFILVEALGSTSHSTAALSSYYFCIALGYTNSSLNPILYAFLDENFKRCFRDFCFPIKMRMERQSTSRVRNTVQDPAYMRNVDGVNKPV

Chain of Mu-type opioid receptor (P97266 whole entry): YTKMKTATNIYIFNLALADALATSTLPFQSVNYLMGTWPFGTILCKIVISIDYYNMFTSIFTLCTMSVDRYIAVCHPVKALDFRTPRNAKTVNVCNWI

**Q.** Which Ki [1] does the source give for `CC1(C)SSC[C@H](NC(=O)[C@@H](N)Cc2ccc(O)cc2)C(=O)N[C@@H](Cc2ccccc2)C(=O)N[C@@H]1C(=O)O` (H-YCF[Pen]-OH; disulfide 2-4) here?
**A.** Its Ki is 0.00179 µM.

**Q.** For `CC1(C)SSC[C@@H](NC(=O)[C@@H]2NCC[C@@H]2c2ccc(O)cc2)C(=O)N[C@@H](Cc2ccccc2)C(=O)N[C@@H]1C(=O)O`, which Ki (Mu-type opioid receptor) is on record?
**A.** Its Ki is 10 µM.

**Q.** What about the Ki [2] of the same compound?
**A.** The Ki was greater than 10 µM.

**Q.** Which Ki (Mu-type opioid receptor) does the source give for `CC1(C)SSC[C@@H](NC(=O)[C@H]2NCC[C@@H]2c2ccc(O)cc2)C(=O)N[C@@H](Cc2ccccc2)C(=O)N[C@@H]1C(=O)O` here?
**A.** The Ki was 0.105 µM.

**Q.** And the Ki [2]?
**A.** The Ki was 10 µM.

Source: ChEMBL document CHEMBL1126095, “Incorporation of a novel conformationally restricted tyrosine analog into a cyclic, delta opioid receptor selective tetrapeptide (JOM-13) enhances delta receptor binding affinity and selectivity” (J Med Chem, 1992)
